Experimental data reported in BindingDB's records for PubMed 9686407 (Sri International, 1998).
Where a name gives a salt, the structure may show the parent alone.

Assays:
[1] = molecular target: T1, 5-hydroxytryptamine receptor 1A (Homo sapiens, UniProt P08908)
T1 sequence (P08908 whole entry): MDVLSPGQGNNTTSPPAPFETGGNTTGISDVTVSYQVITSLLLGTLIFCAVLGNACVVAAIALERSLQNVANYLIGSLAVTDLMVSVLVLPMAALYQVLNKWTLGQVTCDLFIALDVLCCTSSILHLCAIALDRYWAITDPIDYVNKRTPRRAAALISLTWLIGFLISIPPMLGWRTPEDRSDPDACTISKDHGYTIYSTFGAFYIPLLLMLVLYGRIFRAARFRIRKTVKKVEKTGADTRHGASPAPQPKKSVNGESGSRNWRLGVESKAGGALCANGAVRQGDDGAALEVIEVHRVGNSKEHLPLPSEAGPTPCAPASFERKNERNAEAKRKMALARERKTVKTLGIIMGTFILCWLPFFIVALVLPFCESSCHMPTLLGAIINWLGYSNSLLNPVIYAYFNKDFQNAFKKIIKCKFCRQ

[2] = molecular target: 5-hydroxytryptamine receptor 2A (Rattus norvegicus, UniProt P14842)
[3] = molecular target: T2, 5-hydroxytryptamine receptor 3A (Mus musculus, UniProt P23979)
T2 sequence (P23979 whole entry): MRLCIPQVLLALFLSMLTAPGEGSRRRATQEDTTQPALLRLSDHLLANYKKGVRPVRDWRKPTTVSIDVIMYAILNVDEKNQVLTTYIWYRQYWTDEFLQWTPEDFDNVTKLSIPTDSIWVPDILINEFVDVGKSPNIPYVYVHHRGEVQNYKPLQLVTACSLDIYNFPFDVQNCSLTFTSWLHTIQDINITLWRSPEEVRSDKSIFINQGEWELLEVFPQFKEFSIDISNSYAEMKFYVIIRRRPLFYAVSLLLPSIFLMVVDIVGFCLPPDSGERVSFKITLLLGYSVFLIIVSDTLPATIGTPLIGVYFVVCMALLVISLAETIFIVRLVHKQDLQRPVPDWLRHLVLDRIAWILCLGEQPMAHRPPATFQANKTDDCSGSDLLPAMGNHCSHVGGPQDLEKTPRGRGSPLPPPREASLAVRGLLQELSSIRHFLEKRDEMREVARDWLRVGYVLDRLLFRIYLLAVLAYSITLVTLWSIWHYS

D(1A) dopamine receptor = D(1A) dopamine receptor (Homo sapiens, UniProt P21728)
[4] = molecular target: T3, 5-hydroxytryptamine receptor 2C (Rattus norvegicus, UniProt P08909)
T3 sequence (P08909 whole entry): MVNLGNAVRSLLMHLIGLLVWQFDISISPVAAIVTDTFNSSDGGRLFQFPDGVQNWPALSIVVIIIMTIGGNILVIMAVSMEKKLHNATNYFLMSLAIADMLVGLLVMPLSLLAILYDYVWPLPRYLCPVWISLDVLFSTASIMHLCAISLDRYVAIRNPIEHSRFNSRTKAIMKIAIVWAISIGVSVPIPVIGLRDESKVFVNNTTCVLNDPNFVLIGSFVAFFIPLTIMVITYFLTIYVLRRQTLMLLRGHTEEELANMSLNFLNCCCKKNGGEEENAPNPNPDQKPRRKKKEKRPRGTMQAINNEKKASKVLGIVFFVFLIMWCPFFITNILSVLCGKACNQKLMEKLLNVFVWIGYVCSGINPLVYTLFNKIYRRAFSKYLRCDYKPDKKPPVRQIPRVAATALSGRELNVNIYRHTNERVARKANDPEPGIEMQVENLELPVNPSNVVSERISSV

Sequence of D(1A) dopamine receptor (P21728 whole entry): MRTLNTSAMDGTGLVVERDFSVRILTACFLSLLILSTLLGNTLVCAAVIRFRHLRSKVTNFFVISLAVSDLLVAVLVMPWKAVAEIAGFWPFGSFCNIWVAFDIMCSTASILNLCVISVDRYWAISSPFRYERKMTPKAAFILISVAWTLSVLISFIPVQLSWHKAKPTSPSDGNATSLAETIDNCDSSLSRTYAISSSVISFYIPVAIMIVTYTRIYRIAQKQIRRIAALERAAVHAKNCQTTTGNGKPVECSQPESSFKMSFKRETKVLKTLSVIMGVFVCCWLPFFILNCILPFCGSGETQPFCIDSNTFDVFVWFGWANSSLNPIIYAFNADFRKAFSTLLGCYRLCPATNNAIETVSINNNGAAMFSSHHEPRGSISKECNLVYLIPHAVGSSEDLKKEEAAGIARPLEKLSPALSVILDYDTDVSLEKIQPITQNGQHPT
Sequence of 5-hydroxytryptamine receptor 2A (P14842 whole entry): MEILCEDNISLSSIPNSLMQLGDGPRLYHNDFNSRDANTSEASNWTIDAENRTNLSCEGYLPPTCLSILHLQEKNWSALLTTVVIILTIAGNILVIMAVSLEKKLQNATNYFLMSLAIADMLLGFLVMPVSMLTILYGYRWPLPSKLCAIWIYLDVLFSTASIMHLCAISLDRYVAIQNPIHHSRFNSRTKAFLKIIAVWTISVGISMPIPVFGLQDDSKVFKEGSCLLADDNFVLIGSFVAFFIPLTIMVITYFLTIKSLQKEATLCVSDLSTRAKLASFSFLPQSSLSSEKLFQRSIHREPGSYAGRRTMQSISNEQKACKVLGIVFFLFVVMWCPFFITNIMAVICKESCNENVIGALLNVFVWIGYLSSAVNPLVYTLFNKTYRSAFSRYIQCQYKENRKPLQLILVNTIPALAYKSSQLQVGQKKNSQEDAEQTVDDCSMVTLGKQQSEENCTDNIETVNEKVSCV

Row | SMILES | Ki [1] [µM] | Ki [2] [µM] | Ki [3] [µM] | Ki (D(1A) dopamine receptor) [µM] | Ki [4] [µM]
1 | CN1C2CCC1CC(OC(=O)c1c[nH]c3ccccc13)C2 (stereo unspecified) | > 10 | 5.61 | 0.0005 | > 10 | > 10
2 | COC(=O)[C@H]1[C@H]2C[C@@H]3c4[nH]c5cc(OC)ccc5c4CCN3C[C@H]2C[C@@H](OC(=O)c2cc(OC)c(OC)c(OC)c2)[C@@H]1OC [Apoplon] | 1.83 | 3.06 | > 10 | 3.85 | 3.1
3 | CCN(CC)CCNC(=O)c1cc(Cl)c(N)cc1OC [4-amino-5-chloro-N-[2-(diethylamino)ethyl]-2-methoxy-benzamide;hydrochloride] | > 10 | – | 0.353 | > 10 | 3.86
4 | CC[C@@H]1CC2C[C@@H]3c4[nH]c5ccc(OC)cc5c4CCN(C2)C13 [IBOGAINE] | > 10 | > 10 | > 10 | > 10 | > 10
5 | CNc1cc(OC)c(C(=O)N[C@H]2CCN(Cc3ccccc3)[C@H]2C)cc1Cl [Nemonapride] | – | 0.058 | 0.526 | – | 3.12
6 | CN1C2CCC1CC(OC(=O)c1cc(Cl)cc(Cl)c1)C2 (stereo unspecified) [MDL 72222] | > 10 | 2.85 | 0.014 | > 10 | > 10
7 | Oc1cc2c(cc1O)[C@@H](c1ccccc1)CNCC2 | 3.1 | 6.16 | > 10 | – | > 10
8 | OCCN1CCN(CC/C=C2/c3ccccc3Sc3ccc(C(F)(F)F)cc32)CC1 [(cis) 2-{4-[3-(2-Trifluoromethyl-thioxanthen-9-ylidene)-propyl]-piperazin-1-yl}-ethanol(Flupentixol)] | 8.03 | – | > 10 | – | 0.295
9 | O=C(c1ccc(F)cc1)C1CCN(CCn2c(=O)[nH]c3ccccc3c2=O)CC1 [3-(2-{4-[(4-fluorophenyl)carbonyl]piperidin-1-yl}ethyl)-1,2,3,4-tetrahydroquinazoline-2,4-dione] | – | – | > 10 | – | 0.069
10 | CN1CCN(c2nc3cc(C(F)(F)F)ccc3n3cccc23)CC1 [CAS_109028-10-6] | 0.044 | 3.13 | > 10 | 1.53 | 6.6
11 | COC(=O)[C@H]1[C@@H](OC(=O)c2ccccc2)C[C@@H]2CC[C@H]1N2C [Cocaine (-)] | > 10 | > 10 | > 10 | > 10 | > 10
12 | Cc1nc2sccn2c(=O)c1CCN1CCC(=C(c2ccc(F)cc2)c2ccc(F)cc2)CC1 | – | – | > 10 | 0.933 | –
13 | CC(C)(C)[C@]1(O)CCN2C[C@H]3c4ccccc4CCc4cccc(c43)[C@@H]2C1 | 0.528 | 0.0052 | > 10 | – | 1.06
14 | O=c1[nH]c2ccccc2n1C1CCN(CCCC(c2ccc(F)cc2)c2ccc(F)cc2)CC1 [1-(1-(4,4-bis(4-fluorophenyl)butyl)piperidin-4-yl)-1H-benzo[d]imidazol-2(3H)-one] | – | 0.049 | 3.29 | – | 5.79
15 | CN[C@@H](C)Cc1ccc2c(c1)OCO2 [MDMA, R(-)] | > 10 | 3.91 | > 10 | > 10 | –
16 | OCCN1CCN(CCCN2c3ccccc3Sc3ccc(C(F)(F)F)cc32)CC1 [2-[4-[3-[2-(trifluoromethyl)phenothiazin-10-yl]propyl]piperazin-1-yl]ethanol;hydrochloride] | – | – | > 10 | – | –
17 | CCN1CCCC1CNC(=O)c1cc(S(N)(=O)=O)ccc1OC (stereo unspecified) [N-[(1-ethylpyrrolidin-2-yl)methyl]-2-methoxy-5-sulfamoylbenzamide] | > 10 | – | > 10 | > 10 | –
18 | CCCN(CCC)C1CCc2cccc(O)c2C1 (stereo unspecified) | – | > 10 | > 10 | > 10 | –
19 | CN1Cc2c(N)cccc2[C@H](c2ccccc2)C1 [(+/-)-2-Methyl-4-phenyl-1,2,3,4-tetrahydro-isoquinolin-8-ylamine] | 1.18 | – | > 10 | > 10 | –
20 | N[C@@H]1C[C@H]1c1ccccc1 [Tranylcypromine,(+)] | 5.96 | > 10 | > 10 | – | > 10
21 | Cc1[nH]c2ccc(O)cc2c1CCN | – | > 10 | 0.995 | > 10 | 1.37

Row | SMILES | Ki [1] [µM] | Ki [2] [µM] | Ki [3] [µM] | Ki (D(1A) dopamine receptor) [µM] | Ki [4] [µM]
22 | CN(C)CCCN1c2ccccc2CCc2ccccc21 | > 10 | – | 3.65 | > 10 | 0.106
23 | c1ccc2nc(N3CCNCC3)ccc2c1 [2-Piperazin-1-yl-quinoline (Quipazine)] | – | 0.092 | 0.0032 | > 10 | 0.653
24 | Oc1cc2c(c(Cl)c1O)CCNC[C@@H]2c1ccccc1 [(R)-6-Chloro-7,8-dihydroxy-1-phenyl-2,3,4,5-tetrahydro-1H-benzo[d]azepinium] | 5.52 | 3.08 | – | – | 1.51
25 | COC(=O)[C@@H]1[C@H]2C[C@H]3c4[nH]c5ccccc5c4CCN3C[C@@H]2CC[C@@H]1O [yohimbic acid methyl ester] | – | – | – | – | > 10
26 | Cc1nccn1CC1CCc2c(c3ccccc3n2C)C1=O (stereo unspecified) [NSC_68647] | > 10 | – | 0.015 | > 10 | –
27 | C=CCN1CCc2c(cc(O)c(O)c2Cl)C(c2ccccc2)C1 (racemic) [SKF 82958] | 1.78 | 1.29 | > 10 | – | 4.63
28 | Cc1ccc(N(CC2=NCCN2)c2cccc(O)c2)cc1 [SMR000059054] | – | 0.222 | 4.29 | – | 0.459
29 | C=CCN1CCc2cc(O)c(O)cc2C(c2ccccc2)C1 (stereo unspecified) | 2.11 | 2.7 | – | – | 3.04
30 | O=C(CCCN1CCC2(CC1)C(=O)NCN2c1ccccc1)c1ccc(F)cc1 [8-[4-(4-fluorophenyl)-4-oxidanylidene-butyl]-1-phenyl-1,3,8-triazaspiro[4.5]decan-4-one] | – | – | > 10 | – | –
31 | COc1ccccc1N1CCN(CCCCN2C(=O)c3ccccc3C2=O)CC1 [2-{4-[4-(2-Methoxy-phenyl)-piperazin-1-yl]-butyl}-isoindole-1,3-dione] | – | 0.549 | > 10 | 4.51 | 4.12
32 | C[C@H](N)Cc1ccccc1 [beta-aminopropylbenzene] | 6.61 | – | > 10 | – | –
33 | CNCCCN1c2ccccc2CCc2ccccc21 [Desmethylimipramine] | – | – | 4.4 | – | 0.748
34 | CN1CCc2cccc3c2[C@H]1Cc1ccc(O)c(O)c1-3 [APOKYN] | – | 4.38 | > 10 | – | 1.1
35 | CN1CCc2cc(Cl)c(O)cc2[C@@H](c2ccccc2)C1 [SCH 23390,R(+)] | 0.661 | 0.0122 | 3.91 | – | 0.051
36 | CCCN1CCC[C@@H]2Cc3n[nH]cc3C[C@H]21 [NSC_54562] | 1.71 | > 10 | > 10 | – | > 10
37 | CN(C)CCCN1c2ccccc2Sc2ccc(Cl)cc21 [[3-(2-Chloro-phenothiazin-10-yl)-propyl]-dimethyl-amine(Chlorpromazine)] | – | – | 0.82 | – | –
38 | OCCN1CCN(CC/C=C2/c3ccccc3Sc3ccc(C(F)(F)F)cc32)CC1 [Fluphenthixol] | – | 0.013 | – | – | –
39 | CN(C)C/C=C(/c1ccc(Br)cc1)c1cccnc1 [cis-[3-(4-Bromo-phenyl)-3-pyridin-3-yl-allyl]-dimethyl-amine;HCl] | – | – | > 10 | – | 0.482
40 | CC(N)Cc1ccc2c(c1)OCO2 (stereo unspecified) | > 10 | – | > 10 | > 10 | –
41 | NCCc1ccc(O)c(O)c1 | 8.25 | > 10 | > 10 | – | > 10
42 | NC(Cc1ccc(O)c(O)c1)C(=O)O (stereo unspecified) [2-amino-3-(3,4-dihydroxyphenyl)propanoic acid] | – | > 10 | > 10 | – | > 10
